Structures can show the parent of a compound that is named as a salt.
Legend:
[1] = UV filter performance: wavelength of maximum absorbance of BMDBM in emollient; type: physicochemical; conditions: BMDBM dissolved in the listed emollient; UV/Vis 290 to 400nm, 1 cm cuvette
Experimental: (§1) The wavelength of maximum absorbance (,max) is an indicator to describe the performance of a UV filter molecule. It gives the wavelength at which the absorbance is at maximum. […] The UV transmission spectrum of each UV filter - emollient mixture was measured from 290 to 400nm using a UV/Vis spectrophotometer Perkin Elmer Lambda 25. Three stock solutions with a concentration of 1mM of UV filter were prepared for each mixture. Further, three dilutions of each stock solution were prepared resulting in nine measurements in total per UV filter-emollient solution. Then, all solutions were filled in UV transparent quartz cuvette of 1 cm optical path-length for UV Transmission measurements.

[2] = description of the commercial UV filter; cited from earlier work
[3] = UV filter performance: wavelength of maximum absorbance of DHHB in emollient; type: physicochemical; conditions: DHHB dissolved in the listed emollient; UV/Vis 290 to 400nm, 1 cm cuvette
Experimental: as §1

[4] = Recovery measurements on photo stability of BEMT (irradiated film on quartz plates, HPLC); type: physicochemical; conditions: presence of BMDBM in the composition
Experimental: Recovery measurements on photo stability of BEMT
The sunscreen and UV filter compositions as defined above are applied on roughened quartz plates (2 μl/cm^2). Plates are irradiated using Atlas CPS device at different duration times:
(§2) 0h (0 MED, no irradiation)
4h (20 MED). In total, four plates are prepared for each irradiation condition. After irradiation, each plate is rinsed off with tetrahydrofuran. The rinsing solution is further analyzed via HPLC to determine the recovery of BEMT.

[5] = Measurement of interfacial tension (polarity index) of emollients; type: physicochemical; conditions: interfacial tension between emollient and water, Tensimat Densimat TD2000
Text: The term “polarity index” refers to non-polar or polar oils. Non-polar oils are mainly based on hydrocarbons and lack an electronegative element, such as oxygen. In contrast, polar oils contain heteroatoms that differ in electronegativity, which results in a dipole moment. However, such oils are still insoluble in water, i.e. hydrophob. The polarity index can be determined by measuring the interfacial tension between the respective oil and water.
Measurement of interfacial tension (polarity index)
Interfacial tension of the respective emollients as listed below was measured using a Tensimat Densimat TD2000.

[6] = Recovery measurements on photo stability of BMDBM (irradiated film on quartz plates, HPLC); type: physicochemical; conditions: octocrylene free sunscreen composition
Experimental: Recovery measurements on photo stability of BMDBM
The sunscreen and UV filter compositions as defined above are applied on roughened quartz plates (2 μl/cm^2). Plates are irradiated using Atlas CPS device at different duration times (MED=Minimal Erythema Dose):
as §2
4h (20 MED). In total, four plates are prepared for each irradiation condition. After irradiation, each plate is rinsed off with tetrahydrofuran. The rinsing solution is further analyzed via HPLC to determine the recovery of BMDBM.

Structure (SMILES) | λmax values (BMDBM) [1] [nm] | λmax values (DHHB) [3] [nm] | polarity index [5] [mN/m] | absorption maximum [2] [nm] | further results
c1ccc(-c2ccc(-c3nc(-c4ccc(-c5ccccc5)cc4)nc(-c4ccc(-c5ccccc5)cc4)n3)cc2)cc1 [tris-biphenyl triazine, 2,4,6-Tris(biphenyl-4-yl)-1,3,5-triazine] | – | – | – | 310 | –
CC(C)OC(=O)CCCCCCCCC(=O)OC(C)C [diisopropyl sebacate] | 357 | 350 | – | – | –
COc1ccc(C(=O)CC(=O)c2ccc(C(C)(C)C)cc2)cc1 [BMDBM, 1-(4-(1,1-dimethylethyl)phenyl)-3-(4-methoxyphenyl)propane-1,3-dione] | – | – | – | 357 | effect on stability of BEMT, in words [4]: destabilizes the UV filter BEMT
CCCCOC(=O)CC(O)(CC(=O)OCCCC)C(=O)OCCCC [tributyl citrate] | 359 | 352 | 10 | – | –
CCCCCCOC(=O)c1ccccc1C(=O)c1ccc(N(CC)CC)cc1O [DHHB, hexyl 2-[4-(diethylamino)-2-hydroxybenzoyl]benzoate] | – | – | – | 354 | effect on photo stability of BMDBM and BEMT, in words [6]: stabilizes the UV filter BMDBM and BEMT
CC(C)OC(=O)CCCCC(=O)OC(C)C [diisopropyl adipate] | 357 | 351 | 12 | – | –
CCCCC(CC)COC(=O)c1ccc(Nc2nc(Nc3ccc(C(=O)NC(C)(C)C)cc3)nc(Nc3ccc(C(=O)OCC(CC)CCCC)cc3)n2)cc1 (stereo not drawn) [diethylhexyl-butamidotriazone, 4,4′-[[6-[[4-[[(1,1-dimethylethyl)amino]carbonyl]phenyl]amino]-1,3,5-triazin-2,4-diyl]diimino]bis-benzoic acid-bis(2-ethylhexyl)ester] | – | – | – | 310 | –
CCCCCCCCCCC(CO)CCCCCCCC (stereo not drawn) [octyldodecanol] | 357 | 349 | 25 | – | –

Further lines, with some results ahead:

λmax values (BMDBM) [1] [nm] | λmax values (DHHB) [3] [nm] | polarity index [5] [mN/m] | Structure (SMILES) | absorption maximum [2] [nm] | further results
357 | – | – | CCCCCCCCCCCCCC(=O)OC(C)C [isopropyl myristate] | – | –
– | 351 | – | CCCCOC(=O)CCCCC(=O)OCCCC [dibutyl adipate] | – | –
359 | 353 | – | CCOC(=O)CC(O)(CC(=O)OCC)C(=O)OCC [triethyl citrate] | – | –
362 | 355 | 19 | O=C(OCCc1ccccc1)c1ccccc1 [phenethyl benzoate] | – | –

From patent US20220151890A1, “EFFICIENT SUNSCREEN COMPOSITIONS WITH DIETHYLAMINO HYDROXYBENZOYL HEXYL BENZOATE AND BUTYL METHOXYDIBENZOYLMETHANE” (BASF SE, priority 2019, published 2022)
